{"source": "paper PMC3342448", "about": "(Cancer Research, 2012)", "key": {"MCF7-β3/MT cells [1]": {"tested_on": "MCF7-β3/MT cells", "assay": "Cell viability", "assay_type": "cell-based, Human", "settings": "400 μM, 6 h"}, "184B5-MT cells [2]": {"tested_on": "184B5-MT cells", "assay": "Transwell migration assay on COL-I, 184B5-MT cells", "assay_type": "cell-based, Human", "settings": "compounds 10–100 μM, 16–18 h"}, "[3]": {"assay": "Solubility in aqueous solutions", "assay_type": "physicochemical", "settings": "400 μM stock in PBS was highest reachable"}, "MT1-MMP": {"target": "MT1-MMP (Homo sapiens, UniProt P50281)", "assay": "Gelatin zymography of MCF7-β3/MT tumor extracts", "assay_type": "in vivo", "settings": "tumor extracts of mice treated 0.5 mg/kg intratumoral"}, "MCF7-β3/MT cells [4]": {"tested_on": "MCF7-β3/MT cells", "assay": "COL-I degradation assay, MCF7-β3/MT cells", "assay_type": "cell-based, Human", "settings": "compound 100 μM, 3 days"}, "MT1-MMP homodimerization": {"target": "MT1-MMP homodimerization (Homo sapiens, UniProt P50281)", "assay": "MT1-MMP dimerization test", "assay_type": "cell-based", "settings": "compounds 100 μM, 24 h, MCF7-MT-V5 cells transfected with MT1-MMP-FLAG"}, "MCF7-β3/MT xenografts": {"tested_on": "MCF7-β3/MT xenografts", "assay": "MCF7-β3/MT tumor xenografts in mice", "assay_type": "in vivo"}, "cellular MT1-MMP": {"target": "cellular MT1-MMP (Homo sapiens, UniProt P50281)", "assay": "Gelatin zymography of MMP-2 activation by 184B5-MT cells", "assay_type": "cell-based", "settings": "184B5-MT cells with proMMP-2, compound 1–100 μM"}, "CAT": {"target": "CAT (Homo sapiens, UniProt P50281)", "assay": "Cleavage of fluorescent peptide by MT1-MMP catalytic domain", "assay_type": "biochemical", "settings": "CAT 10 nM, fluorescent substrate 10 μM"}, "MMP-2": {"target": "T1, MMP-2 (Homo sapiens, UniProt P08253)", "T1 sequence (P08253 110-660)": "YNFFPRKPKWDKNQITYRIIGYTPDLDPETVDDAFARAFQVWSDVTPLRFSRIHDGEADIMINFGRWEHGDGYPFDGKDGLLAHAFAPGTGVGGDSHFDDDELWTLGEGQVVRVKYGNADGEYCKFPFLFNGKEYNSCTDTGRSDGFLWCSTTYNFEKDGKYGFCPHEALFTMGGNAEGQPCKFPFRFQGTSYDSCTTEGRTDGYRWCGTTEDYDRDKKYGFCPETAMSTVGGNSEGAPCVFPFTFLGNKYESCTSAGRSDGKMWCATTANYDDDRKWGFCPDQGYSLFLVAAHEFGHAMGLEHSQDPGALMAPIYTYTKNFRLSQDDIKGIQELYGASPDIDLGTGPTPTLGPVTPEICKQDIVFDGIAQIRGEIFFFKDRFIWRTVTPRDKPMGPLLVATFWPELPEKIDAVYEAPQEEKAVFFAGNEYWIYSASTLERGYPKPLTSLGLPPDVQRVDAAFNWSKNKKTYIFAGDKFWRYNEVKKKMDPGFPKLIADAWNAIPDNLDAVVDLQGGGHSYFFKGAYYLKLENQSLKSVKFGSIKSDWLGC", "assay": "Catalytic activity of MMP-2", "assay_type": "biochemical", "settings": "not shown"}, "184B5-MT cells [5]": {"tested_on": "184B5-MT cells", "assay": "Cell adhesion assay on COL-I and Matrigel, 184B5-MT cells", "assay_type": "cell-based, Human", "settings": "compounds 25–100 μM, 1 h adhesion"}, "MDA-MB-231 cells": {"tested_on": "MDA-MB-231 cells", "assay": "Transwell migration assay on COL-I, MDA-MB-231 cells", "assay_type": "cell-based, Human", "settings": "compounds 100 μM"}}, "data": [{"smiles": "CCCC(C)NC(=O)c1ccc(Cl)c(Cl)c1", "note": "(stereo not drawn) [compound 9]", "values": [{"measurement": "cytotoxicity in MCF7-β3/MT cells", "setting": "MCF7-β3/MT cells [1]", "value": "did not demonstrate any cytotoxicity"}, {"measurement": "migration of 184B5-MT cells on COL-I", "setting": "184B5-MT cells [2]", "value": "repressed migration of 184B5-MT cells on COL-I in a dose-dependent manner"}, {"measurement": "solubility", "setting": "[3]", "value": "limited solubility"}, {"measurement": "ability of MT1-MMP to activate MMP-2 in tumors", "setting": "MT1-MMP", "value": "did not affect"}, {"measurement": "collagenolytic activity (COL-I degradation) in MCF7-β3/MT cells", "setting": "MCF7-β3/MT cells [4]", "value": "dramatically reduced"}, {"measurement": "levels of co-precipitated MT1-MMP-V5 in pull-down samples (homodimerization)", "setting": "MT1-MMP homodimerization", "value": "significantly reduced"}, {"measurement": "physical damage and necrosis in tumors after injections", "setting": "MCF7-β3/MT xenografts; 0.5 mg/kg intratumoral", "value": "no physical damage and necrosis"}, {"measurement": "tumor phenotype", "setting": "MCF7-β3/MT xenografts; 0.5 mg/kg intratumoral injections", "value": "caused a fibrotic tumor phenotype"}, {"measurement": "xenograft angiogenesis (H&E staining)", "setting": "MCF7-β3/MT xenografts; 0.5 mg/kg intratumoral, compared with control mice", "value": "did not reveal any significant effect"}, {"measurement": "immunoreactivity and levels of COL-I in tumors", "setting": "MCF7-β3/MT xenografts; 0.5 mg/kg intratumoral, experimental versus control", "value": "significantly enhanced"}, {"measurement": "catalytic function of cellular MT1-MMP (MMP-2 activation)", "setting": "cellular MT1-MMP", "value": "did not inhibit"}, {"measurement": "effect on cleavage activity of CAT", "setting": "CAT", "value": "did not affect the cleavage activity"}, {"measurement": "catalytic activity of MMP-2", "setting": "MMP-2", "value": "did not inhibit"}, {"measurement": "adhesion of 184B5-MT on Matrigel and COL-I substrates", "setting": "184B5-MT cells [5]", "value": "did not affect cell adhesion"}, {"measurement": "migration of MDA-MB-231 cells", "setting": "MDA-MB-231 cells", "value": "did not show any inhibitory effect"}]}]}
